Results from US10258610B2, “Pharmaceutical compositions comprising rifaximin, processes for their preparation and their use in the treatment of vaginal infections” (ALFASIGMA S.P.A., priority 2011, dated 2019).
Entries after “also recorded” stand apart in the source; their conditions may differ.

Columns and labels:
Assay type in all cases: in vivo, human
[1] = Phase I systemic absorption of rifaximin vaginal tablets in healthy volunteers; conditions: single 100 mg vaginal tablet, 30 minutes to 24 hours; LLOQ 0.5 ng/ml
Description: The samples were analyzed by liquid chromatography equipped with mass spectrometry detector, with a lower limit of quantization (LLOQ) of rifaximin concentration 0.5 ng/ml.

[2] = test system: bacterial vaginosis; experiment: Phase II clinical trial, recovery by Amsel criteria and Nugent score; conditions: for Recovery of patients after relapse of bacterial vaginosis / Recovery of patients suffering from a first episode of bacterial vaginosis: visit V4 as titled, Amsel and Nugent
From the text: The example describes the clinical trial Phase II carried out on 114 patients affected by bacterial vaginosis, non-pregnant, having an age between 18 and 50 years. The diagnosis of bacterial vaginosis was based on Amsel criteria, wherein at least three criteria out of four must be positive, and on the Nugent score, wherein a score higher than four indicates the presence of pathogenic vaginal bacteria. The objectives of the trial were the evaluation of recovery from bacterial vaginosis both according to Amsel criteria (Amsel index <3) and according to Nugent score (Nugent index <4) 7-10 days after the end of the therapy. The secondary objectives of the trial were the recovery, separately evaluated according to Amsel criteria and to Nugent score, at the first control visit (V3), the continued recovery at the second control visit (V4) and the evaluation of the composition of vaginal microbiota by means of PCR and PCR-DGGE. In particular, the patients affected by bacterial vaginosis and not affected by contemporaneous viral, protozoan and fungal vaginal infections were assigned to one of the following treatment groups using a centralized randomization procedure and a double-blind experimental design: Group A: 21 patients receiving a vaginal tablet of rifaximin containing 100 mg rifaximin, prepared according to Example 2, once a day for five days, in the evening; Group B: 23 patients receiving a vaginal tablet of rifaximin containing 25 mg rifaximin, prepared according to Example 1, once a day for five days, in the evening; Group C: 19 patients receiving a vaginal tablet of rifaximin containing 100 mg rifaximin, prepared according to Example 2, once a day for two days, in the evening, plus a vaginal tablet of placebo, once a day for the remaining three days, in the evening; Group D: 22 patients receiving a placebo tablet prepared according to Example 1, wherein the rifaximin amount was replaced by lactose monohydrate, once a day for five days, in the evening. The study included a screening visit (V1) followed by a randomization visit after seven days (V2), by a first control visit 7-10 days after the end of the therapy (V3) and by a second and last control visit 28-35 days after the end of the therapy (V4). The evaluation of the attainment of the primary objective was carried out during visit V3, and the evaluation of the attainment of the secondary objectives was evaluated during the second and last visit (V4). Table 18 reports the percent recovery from the disease at the visit V3, according to both evaluation criteria, namely the clinical one (Amsel) and the microbiological (Nugent). The recovery was evaluated according to Nugent score by using a Gram stained slide and by evaluating the proportion between Lactobacilli and other bacteria such as Gram-variable or Gram-negative coccobacilli, Gram-variable curved bacilli.

[3] = Phase II clinical trial, adverse events
From the text: The adverse events reported by patients were registered, and the most frequent one was the rifaximin related vulvovaginal itching and burning.
In Table 23 it is reported the percentage of patients belonging to different treatment groups who reported adverse events both systemic and local, vulvovaginal itching and burning related to rifaximin.

[4] = visit V3, Group A: 1 tablet 100 mg × 5 days
[5] = visit V3, Group A: 1 tablet 100 mg × 5 days, listed as rifaximin
[6] = visit V3, Group B: 1 tablet 25 mg × 5 days
[7] = visit V3, Group B: 1 tablet 25 mg × 5 days, listed as rifaximin
[8] = visit V3, Group C: 1 tablet 100 mg × 2 days
[9] = visit V3, Group C: 1 tablet 100 mg × 2 days, listed as rifaximin
[10] = Group A: 1 tablet 100 mg × 5 days
[11] = Group B: 1 tablet 25 mg × 5 days
[12] = Group C: 1 tablet 100 mg × 2 days

CO[C@H]1/C=C/O[C@@]2(C)Oc3c(C)c(O)c4c(O)c(c5c(nc6cc(C)ccn65)c4c3C2=O)NC(=O)/C(C)=C\C=C\[C@H](C)[C@H](O)[C@@H](C)[C@@H](O)[C@@H](C)[C@H](OC(C)=O)[C@@H]1C [Rifaximin]
rifaximin plasma concentrations [1]: under the analytical detection limit | Patients with decrease Nugent score ≥8 points [2, 4]: 14.29% | Patients with decreased Nugent score ≤0 points (not responding) [2, 4]: 9.52% | Patients with decreased Nugent score ≥3 points [2, 4]: 52.4% | Patients with decreased Nugent score ≥5 points [2, 4]: 28.6% | Recovered patients, both criteria (Amsel and Nugent) [2, 4]: 25.9% | Recovered patients, clinical evaluation criteria (Amsel) [2, 4]: 66.7% | Recovered patients, microbiological evaluation criteria (Nugent) [2, 4]: 25.9% | Patients with decreased Nugent score ≥3 points [2, 5]: higher than 50% | Patients with decreased Nugent score ≥5 points [2, 5]: about 28% | Recovered patients, microbiological evaluation criteria (Nugent) [2, 5]: about 25% | Patients with decrease Nugent score ≥8 points [2, 6]: 17.39% | Patients with decreased Nugent score ≤0 points (not responding) [2, 6]: 17.39% | Patients with decreased Nugent score ≥3 points [2, 6]: 65.2% | Patients with decreased Nugent score ≥5 points [2, 6]: 47.8% | Recovered patients, both criteria (Amsel and Nugent) [2, 6]: 48.0% | Recovered patients, clinical evaluation criteria (Amsel) [2, 6]: 80.0% | Recovered patients, microbiological evaluation criteria (Nugent) [2, 6]: 48.0% | Patients with decreased Nugent score ≥3 points [2, 7]: higher than 65% | Patients with decreased Nugent score ≥5 points [2, 7]: about 48% | Recovered patients, microbiological evaluation criteria (Nugent) [2, 7]: 47% | Patients with decrease Nugent score ≥8 points [2, 8]: 15.79% | Patients with decreased Nugent score ≤0 points (not responding) [2, 8]: 36.84% | Patients with decreased Nugent score ≥3 points [2, 8]: 36.9% | Patients with decreased Nugent score ≥5 points [2, 8]: 26.3% | Recovered patients, both criteria (Amsel and Nugent) [2, 8]: 36.0% | Recovered patients, clinical evaluation criteria (Amsel) [2, 8]: 72.0% | Recovered patients, microbiological evaluation criteria (Nugent) [2, 8]: 36.0% | Patients with decreased Nugent score ≥3 points [2, 9]: higher than 30% | Patients with decreased Nugent score ≥5 points [2, 9]: about 26% | Recovered patients, microbiological evaluation criteria (Nugent) [2, 9]: about 36% | Recovered patients, both criteria (Amsel and Nugent) ([2]; visit V4, Group A: 1 tablet 100 mg × 5 days): 14.8% | Recovered patients, both criteria (Amsel and Nugent) ([2]; visit V4, Group B: 1 tablet 25 mg × 5 days): 28.0% | Recovered patients, both criteria (Amsel and Nugent) ([2]; visit V4, Group C: 1 tablet 100 mg × 2 days): 4.0% | Recovery of patients after relapse of bacterial vaginosis [2, 10]: 38.5% | Recovery of patients suffering from a first episode of bacterial vaginosis [2, 10]: 14.3% | Recovery of patients after relapse of bacterial vaginosis [2, 11]: 53.8% | Recovery of patients suffering from a first episode of bacterial vaginosis [2, 11]: 41.7% | Recovery of patients after relapse of bacterial vaginosis [2, 12]: 46.2% | Recovery of patients suffering from a first episode of bacterial vaginosis [2, 12]: 25.0% | Patients with adverse events [3, 10]: 35.7% | Patients with vulvovaginal burning [3, 10]: 3.6% | Patients with vulvovaginal itching [3, 10]: 25.0% | Patients with adverse events [3, 11]: 34.6% | Patients with vulvovaginal burning [3, 11]: 19.2% | Patients with vulvovaginal itching [3, 11]: 19.2% | Patients with adverse events [3, 12]: 7.7% | Patients with vulvovaginal burning [3, 12]: 3.8% | Patients with vulvovaginal itching [3, 12]: 3.8% | rifaximin related vulvovaginal candidiasis during treatment ([3]; any of the treated groups): none of the treated groups showed any case of rifaximin-related vulvovaginal candidiasis; also recorded: No rifaximin related vulvovaginal candidiasis | adverse event in the clinical study ([3]; patients treated with 25 mg and 100 mg rifaximin in vaginal tablets): did not show any particular adverse event
